Assays:
Type in all cases: in vivo
[1] = system: redroot pigweed (Amaranthus retroflexus, AMARE); test: Pre-emerge test, greenhouse herbicide activity screening; conditions: pre-emerge, 14 days after application, scale 0-100
In short: (§1)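 Compounds in acetone were track-sprayed at 15-1000 g ai/ha (187 l/ha) on sandy loam pots: pre-emerge one day after seeding, post-emerge at 2-3 leaf stage with 0.25% v/v non-ionic surfactant. Phytotoxicity was rated 14 days later on a 0 (no damage) to 100 (complete death) scale.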

[2] = system: barnyardgrass (Echinochloa crus-galli, ECHCG); test: as above; conditions: pre-emerge, 14 days after application, scale 0-100
In short: as §1

[3] = system: green foxtail (Setaria viridis, SETVI); test: as above; conditions: pre-emerge, 14 days after application, scale 0-100
In short: as §1

[4] = system: ivyleaf morningglory (Ipomoea hederacea, IPOHE); test: as above; conditions: pre-emerge, 14 days after application, scale 0-100
In short: as §1

[5] = system: johnsongrass (Sorghum halepense, SORHA); test: as above; conditions: pre-emerge, 14 days after application, scale 0-100
In short: as §1

[6] = system: lambsquarters (Chenopodium album, CHEAL); test: as above; conditions: pre-emerge, 14 days after application, scale 0-100
In short: as §1

[7] = system: large crabgrass (Digitaria sanguinalis, DIGSA); test: as above; conditions: pre-emerge, 14 days after application, scale 0-100
In short: as §1

[8] = system: sicklepod (Cassia obtusifolia, CASOB); test: as above; conditions: pre-emerge, 14 days after application, scale 0-100
In short: as §1

[9] = system: velvetleaf (Abutilon theophrasti, ABUTH); test: as above; conditions: pre-emerge, 14 days after application, scale 0-100
In short: as §1

[10] = system: field corn (Zea mays L., var. Dekalb 535, CORN); test: Pre-emerge test, crop safety; conditions: pre-emerge, 14 days after application, scale 0-100
In short: (§2)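 Fourteen days after spraying, crop and weed injury was graded visually from 0, no effect, to 100, every plant dead. Test substances were dissolved in acetone and applied at 15–1000 g ai/ha with a flat-fan nozzle. Application was either pre-emergence, one day after sowing, or post-emergence at the 2–3 leaf stage.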

[11] = system: upland rice (Oryza sp., var. Tebonnet, RICE); test: Pre-emerge test, crop safety; conditions: pre-emerge, 14 days after application, scale 0-100
In short: as §2

[12] = system: barnyardgrass (Echinochloa crus-galli, ECHCG); test: Post-emerge test, greenhouse herbicide activity screening; conditions: post-emerge, 14 days after application, rating scale 0-100
In short: (§3)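 Compounds in acetone were track-sprayed at 187 l/ha, 15–1000 g ai/ha, onto sandy loam pots. Pre-emerge seeds were sown one day before spraying, with surface watering afterwards. Post-emerge plants were at the 2–3 leaf stage and sprayed with 0.25% v/v non-ionic surfactant. Injury was rated 0–100 at 14 days.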

[13] = system: green foxtail (Setaria viridis, SETVI); test: as above; conditions: post-emerge, 14 days after application, rating scale 0-100
In short: as §3

[14] = system: ivyleaf morningglory (Ipomoea hederacea, IPOHE); test: as above; conditions: post-emerge, 14 days after application, rating scale 0-100
In short: as §3

[15] = system: johnsongrass (Sorghum halepense, SORHA); test: as above; conditions: post-emerge, 14 days after application, rating scale 0-100
In short: as §3

[16] = system: lambsquarters (Chenopodium album, CHEAL); test: as above; conditions: post-emerge, 14 days after application, rating scale 0-100
In short: as §3

[17] = system: large crabgrass (Digitaria sanguinalis, DIGSA); test: as above; conditions: post-emerge, 14 days after application, rating scale 0-100
In short: as §3

[18] = system: redroot pigweed (Amaranthus retroflexus, AMARE); test: as above; conditions: post-emerge, 14 days after application, rating scale 0-100
In short: as §3

[19] = system: sicklepod (Cassia obtusifolia, CASOB); test: as above; conditions: post-emerge, 14 days after application, rating scale 0-100
In short: as §3

[20] = system: velvetleaf (Abutilon theophrasti, ABUTH); test: as above; conditions: post-emerge, 14 days after application, rating scale 0-100
In short: as §3

[21] = system: field corn (Zea mays L., var. Dekalb 535, CORN); test: Post-emerge test, crop safety; conditions: post-emerge, 14 days after application, rating scale 0-100
In short: as §1

[22] = system: upland rice (Oryza sp., var. Tebonnet, RICE); test: Post-emerge test, crop safety; conditions: post-emerge, 14 days after application, rating scale 0-100
In short: as §1

COc1cc2ccccc2cc1C(=O)Nc1c(OC)c(Cl)cc(F)c1-n1c(=O)cc(C(F)(F)F)n(C)c1=O [2-152]
phytotoxicity rating AMARE ([1]; 63 g ai/ha): 100
phytotoxicity rating AMARE ([1]; 250 g ai/ha): 100
phytotoxicity rating ECHCG ([2]; 63 g ai/ha): 10
phytotoxicity rating ECHCG ([2]; 250 g ai/ha): 70
phytotoxicity rating SETVI ([3]; 63 g ai/ha): 30
phytotoxicity rating SETVI ([3]; 250 g ai/ha): 70
phytotoxicity rating IPOHE ([4]; 63 g ai/ha): 0
phytotoxicity rating IPOHE ([4]; 250 g ai/ha): 0
phytotoxicity rating SORHA ([5]; 63 g ai/ha): 0
phytotoxicity rating SORHA ([5]; 250 g ai/ha): 30
phytotoxicity rating CHEAL ([6]; 63 g ai/ha): 95
phytotoxicity rating CHEAL ([6]; 250 g ai/ha): 100
phytotoxicity rating DIGSA ([7]; 63 g ai/ha): 50
phytotoxicity rating DIGSA ([7]; 250 g ai/ha): 80
phytotoxicity rating CASOB ([8]; 63 g ai/ha): 0
phytotoxicity rating CASOB ([8]; 250 g ai/ha): 50
phytotoxicity rating ABUTH ([9]; 63 g ai/ha): 60
phytotoxicity rating ABUTH ([9]; 250 g ai/ha): 90
phytotoxicity rating CORN (crop damage) ([10]; 63 g ai/ha): 0
phytotoxicity rating CORN (crop damage) ([10]; 250 g ai/ha): 0
phytotoxicity rating RICE (crop damage) ([11]; 63 g ai/ha): 0
phytotoxicity rating RICE (crop damage) ([11]; 250 g ai/ha): 30
ECHCG phytotoxicity rating ([12]; 63 g ai/ha): 30
ECHCG phytotoxicity rating ([12]; 250 g ai/ha): 50
SETVI phytotoxicity rating ([13]; 63 g ai/ha): 30
SETVI phytotoxicity rating ([13]; 250 g ai/ha): 50
IPOHE phytotoxicity rating ([14]; 63 g ai/ha): 100
IPOHE phytotoxicity rating ([14]; 250 g ai/ha): 100
SORHA phytotoxicity rating ([15]; 63 g ai/ha): 20
SORHA phytotoxicity rating ([15]; 250 g ai/ha): 40
CHEAL phytotoxicity rating ([16]; 63 g ai/ha): 98
CHEAL phytotoxicity rating ([16]; 250 g ai/ha): 100
DIGSA phytotoxicity rating ([17]; 63 g ai/ha): 20
DIGSA phytotoxicity rating ([17]; 250 g ai/ha): 30
AMARE phytotoxicity rating ([18]; 63 g ai/ha): 100
AMARE phytotoxicity rating ([18]; 250 g ai/ha): 100
CASOB phytotoxicity rating ([19]; 63 g ai/ha): 100
CASOB phytotoxicity rating ([19]; 250 g ai/ha): 100
ABUTH phytotoxicity rating ([20]; 63 g ai/ha): 100
ABUTH phytotoxicity rating ([20]; 250 g ai/ha): 100
CORN phytotoxicity rating (crop damage) ([21]; 63 g ai/ha): 15
CORN phytotoxicity rating (crop damage) ([21]; 250 g ai/ha): 30
RICE phytotoxicity rating (crop damage) ([22]; 63 g ai/ha): 40
RICE phytotoxicity rating (crop damage) ([22]; 250 g ai/ha): 65

COc1c(Cl)cc(F)c(-n2c(=O)cc(C(F)(F)F)n(C)c2=O)c1NC(=O)c1ccc2ccccc2c1OC [2-153]
phytotoxicity rating AMARE ([1]; 63 g ai/ha): 100
phytotoxicity rating AMARE ([1]; 250 g ai/ha): 100
phytotoxicity rating ECHCG ([2]; 63 g ai/ha): 0
phytotoxicity rating ECHCG ([2]; 250 g ai/ha): 0
phytotoxicity rating SETVI ([3]; 63 g ai/ha): 30
phytotoxicity rating SETVI ([3]; 250 g ai/ha): 90
phytotoxicity rating IPOHE ([4]; 63 g ai/ha): 0
phytotoxicity rating IPOHE ([4]; 250 g ai/ha): 0
phytotoxicity rating SORHA ([5]; 63 g ai/ha): 10
phytotoxicity rating SORHA ([5]; 250 g ai/ha): 0
phytotoxicity rating CHEAL ([6]; 63 g ai/ha): 70
phytotoxicity rating CHEAL ([6]; 250 g ai/ha): 90
phytotoxicity rating DIGSA ([7]; 63 g ai/ha): 0
phytotoxicity rating DIGSA ([7]; 250 g ai/ha): 40
phytotoxicity rating CASOB ([8]; 63 g ai/ha): 0
phytotoxicity rating CASOB ([8]; 250 g ai/ha): 0
phytotoxicity rating ABUTH ([9]; 63 g ai/ha): 20
phytotoxicity rating ABUTH ([9]; 250 g ai/ha): 50
phytotoxicity rating CORN (crop damage) ([10]; 63 g ai/ha): 0
phytotoxicity rating CORN (crop damage) ([10]; 250 g ai/ha): 0
phytotoxicity rating RICE (crop damage) ([11]; 63 g ai/ha): 0
phytotoxicity rating RICE (crop damage) ([11]; 250 g ai/ha): 20
ECHCG phytotoxicity rating ([12]; 63 g ai/ha): 10
ECHCG phytotoxicity rating ([12]; 250 g ai/ha): 20
SETVI phytotoxicity rating ([13]; 63 g ai/ha): 20
SETVI phytotoxicity rating ([13]; 250 g ai/ha): 30
IPOHE phytotoxicity rating ([14]; 63 g ai/ha): 100
IPOHE phytotoxicity rating ([14]; 250 g ai/ha): 95
SORHA phytotoxicity rating ([15]; 63 g ai/ha): 0
SORHA phytotoxicity rating ([15]; 250 g ai/ha): 20
CHEAL phytotoxicity rating ([16]; 63 g ai/ha): 80
CHEAL phytotoxicity rating ([16]; 250 g ai/ha): 95
DIGSA phytotoxicity rating ([17]; 63 g ai/ha): 0
DIGSA phytotoxicity rating ([17]; 250 g ai/ha): 10
AMARE phytotoxicity rating ([18]; 63 g ai/ha): 60
AMARE phytotoxicity rating ([18]; 250 g ai/ha): 90
CASOB phytotoxicity rating ([19]; 63 g ai/ha): 0
CASOB phytotoxicity rating ([19]; 250 g ai/ha): 30
ABUTH phytotoxicity rating ([20]; 63 g ai/ha): 95
ABUTH phytotoxicity rating ([20]; 250 g ai/ha): 100
CORN phytotoxicity rating (crop damage) ([21]; 63 g ai/ha): 5
CORN phytotoxicity rating (crop damage) ([21]; 250 g ai/ha): 5
RICE phytotoxicity rating (crop damage) ([22]; 63 g ai/ha): 0
RICE phytotoxicity rating (crop damage) ([22]; 250 g ai/ha): 10

— US6355799B1, “Substituted benzene compounds, process for their preparation, and herbicidal and defoliant compositions containing them” (ISK Americas Incorporated, priority 1997, dated 2002)
